# Experimental data reported in paper PMC9161374 (Science Translational Medicine, 2022).
# “And” between values parts separate entries of the source, which are not always exact repeats. Identical values can stand only once. Like-named read-outs stand apart in the source and are kept apart here.
# Key:
# SARS-CoV-2 (B.1) = test: Anti-SARS-CoV-2 activity in Vero E6 cells (viral yield by qRT-PCR); format: cell-based; details: for % Inhibition: listed as Remdsivir
# [1] = system: SARS-CoV-2 (Beta, B.1.351); test: microbe, parasite or virus in culture; format: cell-based; details: for % Inhibition: beta, listed as Remdsivir
# [2] = system: SARS-CoV-2 (Omicron, B.1.1.529); details: Omicon, Vero E6, replicates, listed as Remdsivir
# [3] = CCK-8 cell viability assay; format: cell-based, African green monkey; details: African green monkey; Vero E6 cells, 48 h, CCK8
# Experimental: To investigate the effect of drugs on cell viability, Vero E6 cells were seeded in 96-well plates at a density of 20,000 cells per well and were treated with drugs at indicated concentrations (0, 0.01, 0.1, 1, 5, 10, 50, 75, 100, 200 μM) for 48 hours. Cell viability was tested by using Cell Counting Kit-8 (CCK-8, Bimake, B34302). The figures were plotted from cell viability percentage versus the drug concentrations using GraphPad Prism 6 software.
# Fig. S4. Cytotoxicity assay of compounds in Vero E6 cells.
# Vero E6 cells were plated in 96-well plates and treated with increasing concentrations
# of each indicated compound, ranging from 0 to 200 μM, for 48 hours. Cell viability was
# tested using Cell Counting Kit-8 (CCK-8). Data are presented as mean ± SD.
# [4] = system: SARS-CoV-2 (Delta, B.1.617.2); test: microbe, parasite or virus in culture; format: cell-based; details: for % Inhibition: delta, listed as Remdsivir
# [5] = system: SARS-CoV-2 (Omicron, B.1.1.529); test: microbe, parasite or virus in culture
# COVID-19 = system: COVID-19; design: method as in PMID 34937145; details: administered early to non-hospitalized, high-risk patients ref 27; cited from earlier work
# [6] = Severe acute respiratory syndrome coronavirus 2, Vero C1008, read-out: EC90 (Confidence 95%)
structure (smiles),measurement,setting,value
"CCC(CC)COC(=O)[C@H](C)N[P@](=O)(OC[C@H]1O[C@@](C#N)(c2ccc3c(N)ncnn23)[C@H](O)[C@@H]1O)Oc1ccccc1 [Remdesivir, remdesivir, reference compound]",% Inhibition,"SARS-CoV-2 (B.1); B.1, 2 uM, Vero E6, replicates, 2 µM",36.1424%
same,% Inhibition,"SARS-CoV-2 (B.1); B.1, 5 uM, Vero E6, replicates, 5 µM",93.823%
same,% Inhibition,"SARS-CoV-2 (B.1); B.1, 10 uM, Vero E6, replicates, 10 µM",98.7241%
same,% Inhibition,"SARS-CoV-2 (B.1); B.1, 50 uM, Vero E6, replicates, 50 µM",99.0519%
same,inhibition at 0.01 µM,"SARS-CoV-2 (B.1); Severe acute respiratory syndrome coronavirus 2, Vero C1008, B.1, 0.01 uM, Vero E6, replicates",0%
same,inhibition at 0.1 µM,"SARS-CoV-2 (B.1); Severe acute respiratory syndrome coronavirus 2, Vero C1008, B.1, 0.1 uM, Vero E6, replicates",0%
same,inhibition at 0.25 µM,"SARS-CoV-2 (B.1); Severe acute respiratory syndrome coronavirus 2, Vero C1008, B.1, 0.25 uM, Vero E6, replicates",0%
same,inhibition at 0.5 µM,"SARS-CoV-2 (B.1); Severe acute respiratory syndrome coronavirus 2, Vero C1008, B.1, 0.5 uM, Vero E6, replicates",0%
same,inhibition at 1 µM,"SARS-CoV-2 (B.1); Severe acute respiratory syndrome coronavirus 2, Vero C1008, B.1, 1 uM, Vero E6, replicates",0%
same,inhibition at 2 µM,"SARS-CoV-2 (B.1); Severe acute respiratory syndrome coronavirus 2, Vero C1008, B.1, 2 uM, Vero E6, replicates",39.1%
same,inhibition at 5 µM,"SARS-CoV-2 (B.1); Severe acute respiratory syndrome coronavirus 2, Vero C1008, B.1, 5 uM, Vero E6, replicates",94.6%
same,inhibition at 10 µM,"SARS-CoV-2 (B.1); Severe acute respiratory syndrome coronavirus 2, Vero C1008, B.1, 10 uM, Vero E6, replicates",98.6%
same,inhibition at 50 µM,"SARS-CoV-2 (B.1); Severe acute respiratory syndrome coronavirus 2, Vero C1008, B.1, 50 uM, Vero E6, replicates",99.2%
same,EC90,SARS-CoV-2 (B.1); [6],4.25 µM
same,EC50,"SARS-CoV-2 (B.1); Severe acute respiratory syndrome coronavirus 2, Vero C1008, MOI 0.05, 48 h",2.28 µM
same,EC50,"[1]; Severe acute respiratory syndrome coronavirus 2, Vero C1008, 48 h, read-out: EC50 in Vero E6 cells, SARS-CoV-2 (Beta, B.1.351)",1.78 µM
same,inhibition at 0.01 µM,"[1]; Severe acute respiratory syndrome coronavirus 2, Vero C1008, beta, 0.01 uM, Vero E6, replicates",0%
same,inhibition at 0.1 µM,"[1]; Severe acute respiratory syndrome coronavirus 2, Vero C1008, beta, 0.1 uM, Vero E6, replicates",0%
same,inhibition at 0.25 µM,"[1]; Severe acute respiratory syndrome coronavirus 2, Vero C1008, beta, 0.25 uM, Vero E6, replicates",0%
same,inhibition at 0.5 µM,"[1]; Severe acute respiratory syndrome coronavirus 2, Vero C1008, beta, 0.5 uM, Vero E6, replicates",0%
same,inhibition at 2 µM,"[1]; Severe acute respiratory syndrome coronavirus 2, Vero C1008, beta, 2 uM, Vero E6, replicates",65.2%
same,inhibition at 5 µM,"[1]; Severe acute respiratory syndrome coronavirus 2, Vero C1008, beta, 5 uM, Vero E6, replicates",86.2%
same,inhibition at 10 µM,"[1]; Severe acute respiratory syndrome coronavirus 2, Vero C1008, beta, 10 uM, Vero E6, replicates",99.9%
same,inhibition at 50 µM,"[1]; Severe acute respiratory syndrome coronavirus 2, Vero C1008, beta, 50 uM, Vero E6, replicates",99.9%
same,EC90,"[1]; Severe acute respiratory syndrome coronavirus 2, Vero C1008, read-out: EC90 (Confidence 95%), Vero-E6, Beta B.1.351",5.02 µM
same,% Inhibition,"[1]; 1 uM, Vero E6, replicates",35.9868% and 14.2725%
same,% Inhibition,"[1]; 2 uM, Vero E6, replicates",49.345%
same,% Inhibition,"[1]; 5 uM, Vero E6, replicates",85.4168%
same,% Inhibition,"[1]; 10 uM, Vero E6, replicates",99.9589%
same,% Inhibition,"[1]; 50 uM, Vero E6, replicates",99.9256%
same,% Inhibition,[2]; 2.5 uM,31.5626% and 77.85% and 88.9906%
same,% Inhibition,[2]; 5 uM,96.6907% and 99.2675%
same,% Inhibition,[2]; 10 uM,99.9718% and 99.9679%
same,CC50 at 48 h,[3],> 50 µM
same,EC50,"[4]; Severe acute respiratory syndrome coronavirus 2, Vero C1008, 48 h, read-out: EC50 in Vero E6 cells, SARS-CoV-2 (Delta, B.1.617.2)",1.65 µM
same,inhibition at 0.01 µM,"[4]; Severe acute respiratory syndrome coronavirus 2, Vero C1008, delta, 0.01 uM, Vero E6, replicates",0%
same,inhibition at 0.1 µM,"[4]; Severe acute respiratory syndrome coronavirus 2, Vero C1008, delta, 0.1 uM, Vero E6, replicates",0%
same,inhibition at 0.25 µM,"[4]; Severe acute respiratory syndrome coronavirus 2, Vero C1008, delta, 0.25 uM, Vero E6, replicates",0%
same,inhibition at 0.5 µM,"[4]; Severe acute respiratory syndrome coronavirus 2, Vero C1008, delta, 0.5 uM, Vero E6, replicates",0%
same,inhibition at 1 µM,"[4]; Severe acute respiratory syndrome coronavirus 2, Vero C1008, delta, 1 uM, Vero E6, replicates",55.7%
same,inhibition at 2 µM,"[4]; Severe acute respiratory syndrome coronavirus 2, Vero C1008, delta, 2 uM, Vero E6, replicates",58%
same,inhibition at 5 µM,"[4]; Severe acute respiratory syndrome coronavirus 2, Vero C1008, delta, 5 uM, Vero E6, replicates",77.1%
same,inhibition at 10 µM,"[4]; Severe acute respiratory syndrome coronavirus 2, Vero C1008, delta, 10 uM, Vero E6, replicates",99.2%
same,inhibition at 50 µM,"[4]; Severe acute respiratory syndrome coronavirus 2, Vero C1008, delta, 50 uM, Vero E6, replicates",99.9%
same,EC90,"[4]; Severe acute respiratory syndrome coronavirus 2, Vero C1008, read-out: EC90 (Confidence 95%), Vero-E6, Delta B.1.617.2",7.34 µM
same,% Inhibition,"[4]; 1 uM, Vero E6, replicates",43.4129%
same,% Inhibition,"[4]; 2 uM, Vero E6, replicates",46.5254%
same,% Inhibition,"[4]; 5 uM, Vero E6, replicates",77.4749%
same,% Inhibition,"[4]; 10 uM, Vero E6, replicates",96.2382%
same,% Inhibition,"[4]; 50 uM, Vero E6, replicates",99.3849%
same,EC50,"[5]; Severe acute respiratory syndrome coronavirus 2, Vero C1008, 48 h, read-out: EC50 in Vero E6 cells, SARS-CoV-2 (Omicron, B.1.1.529)",1.24 µM
same,inhibition at 0.069 µM,"[5]; Severe acute respiratory syndrome coronavirus 2, Vero C1008, Omicon, 0.069 uM, Vero E6, replicates",0%
same,inhibition at 5 µM,"[5]; Severe acute respiratory syndrome coronavirus 2, Vero C1008, Omicon, 5 uM, Vero E6, replicates",96.9%
same,inhibition at 10 µM,"[5]; Severe acute respiratory syndrome coronavirus 2, Vero C1008, Omicon, 10 uM, Vero E6, replicates",100%
same,EC90,[5]; [6],5.69 µM
same,reduction of the risk of hospitalization or death,COVID-19,87%
